Results on twelve compounds are retold here after PubChem BioAssay (NCI).

Structures are written as SMILES.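 Each compound was tested at five concentrations against cells in 96-well plates for 48 hours. At the TGI there is no net growth.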 Where only a bound is given, the exact number is not on record here.

What all share (assay): growth of human tumour cells (NCI), 48 h
The subject of assay [1] is HCT-15 colon.
Assay [2] concerns IGROV1 ovarian.
For assay [3], the system named is NCI-H522 lung.
Assay [4] has as its system OVCAR-5 ovarian.
Assay [5] deals with PC-3 prostate.
Assay [6] relates to SK-MEL-5 melanoma.
The test system of assay [7] is SK-OV-3 ovarian.
For assay [8], the system named is UACC-257 melanoma.
Assay [9] concerns UACC-62 melanoma.
Assay [10] relates to OVCAR-8 ovarian.

In the case of `CCOC(=O)C(Cc1c(-c2[nH]c3ccccc3c2CC(NC(=O)CNC(C)=O)C(=O)OCC)[nH]c2ccccc12)NC(=O)CNC(C)=O` (configuration not stated), the TGI in assay [1] was above 100 µM; in assay [2], above 100 µM; in assay [3] it was 88.8 µM; in assay [4] it was above 100 µM; in assay [5], above 100 µM; in [6] it was above 100 µM. The figures for the TGI in assay [7], in assay [8] and in [9] were above 100 µM, 73.5 µM and above 100 µM, respectively.
`c1ccc(C/C(=N\Nc2nc3ccccc3o2)c2ccccn2)cc1`: the TGI in [1] was determined as 4.64 µM; in [2] it was 0.609 µM; in assay [3] it was 18.9 µM; in assay [10] it was 1.42 µM; in assay [5] it was 5.68 µM; in assay [6], 0.368 µM. The TGI is 0.0726 µM in assay [7], 3.85 µM in assay [8] and 2.49 µM in assay [9].
In the case of `CCOP(=O)(OCC)C(F)(F)CC1CCCCC1`, the TGI in [1], in assay [2], in assay [4], in assay [10], in [5] and in assay [6] was above 10 µM in each case. Also, the TGI in assay [7], in [8] and in assay [9] was above 10 µM in each case.
Consider `COc1ccc(-c2c(C(C)=O)c(C)n(C3OC(CO)C(O)C(O)C3O)c(=S)c2C#N)cc1` (configuration not stated), for which the TGI in assay [1], in assay [2], in [4], in assay [10], in assay [5] and in assay [6] was above 100 µM each time. Further, the TGI in assay [7], in assay [8] and in [9] was above 100 µM each time.
Take `CNC(=O)OCC1=C(COC(=O)NC)CN(c2ccccc2)C1`: the TGI in [1], in [2], in [4], in [10], in [5] and in assay [6] was above 100 µM each time. For the same compound, the TGI in assay [7], in assay [8] and in assay [9] was above 100 µM throughout.
With `COC(=O)c1cc2c3c(c(C(C)=O)c(OC)c2[nH]1)NCC3`, the TGI in [1], in [2], in assay [4], in assay [10], in [5] and in assay [6] was above 50 µM each time. The TGI in assay [7], in [8] and in assay [9] was above 50 µM throughout.
For the compound `COc1ccc(C=O)cc1Oc1ccc(C[C@H]2c3c(cc(OC)c4c3Oc3cc5c(cc3O4)CCN(C)C5=O)CCN2C)cc1`, the TGI in assay [1] came to 27.5 µM; in [2] it was 13.7 µM; in [3] it was 18.1 µM; in assay [4] it was 34.8 µM; in assay [10], 15.2 µM; in [5], 17.5 µM. Moreover, the TGI in assay [6] was 19.4 µM; in assay [7], 17.5 µM; in [8], 17.6 µM.
Take `CC1=CC(c2ccccc2)n2c(nc3cc4ccccc4cc32)N1` (configuration not stated): the TGI in assay [1], in assay [2], in [4], in assay [10], in assay [5] and in [6] was above 100 µM throughout. Also, the TGI in [7], in assay [8] and in assay [9] was above 100 µM in each case.
As to `COC(=O)C(Cc1ccccc1)NC(=O)CCCNC(=O)OCc1ccccc1` (configuration not stated), the TGI in [1], in assay [2], in [3], in assay [4], in [10] and in [5] was above 100 µM throughout. The TGI in [6] is 46.8 µM; in assay [7], above 100 µM; in assay [9] it was above 100 µM.
For `COc1ccccc1OC/C(N=Cc1ccncc1)=N/NC(=O)c1ccncc1`, the TGI in [1], in assay [2], in assay [3], in assay [4], in assay [10] and in assay [5] was above 100 µM throughout. Further, the TGI in assay [7], in assay [8] and in assay [9] was above 100 µM each time.
Consider `BrCC[P+](c1ccccc1)(c1ccccc1)c1ccccc1`, for which the TGI is above 100 µM in [1]; 29.1 µM in assay [2]; 26.8 µM in assay [4]; 21.9 µM in assay [10]; 17.3 µM in assay [5]; 26.3 µM in [6]. The TGI in assay [7] stood at 66.4 µM; in assay [8] it was 16.5 µM; in assay [9], 21.9 µM.
On to `CC(=O)Oc1ccc2c(c1)c1c(OC(C)=O)c3ccccc3c(OC(C)=O)c1n2Cc1cccc(C)c1`, for which the TGI was above 100 µM in [1]; above 100 µM in [2]; 52.8 µM in assay [3]; above 100 µM in assay [4]; above 100 µM in assay [10]; above 100 µM in assay [5]. The figures for the TGI in assay [7] and in [9] were 53.5 µM and above 100 µM, respectively.
